{
  "source": "patent US20090156620A1",
  "about": "“[4-(6-FLUORO-7-METHYLAMINO-2,4-DIOXO-1,4-DIHYDRO-2H-QUINAZOLIN-3-YL)-PHENYL]-5-CHLORO-THIOPHEN-2-YL-SULFONYLUREA SALTS, FORMS AND METHODS RELATED THERETO” (Portola Pharmaceuticals, Inc., priority 2007, published 2009)",
  "key": {"[1]": {"tested_on": "ADP-induced human platelet aggregation", "assay": "inhibition of ADP-mediated platelet aggregation in platelet-rich plasma (PRP assay)", "assay_type": "cell-based", "description": "The effect of testing the compound according to the invention on ADP-induced human platelet aggregation was assessed in a 96-well microtiter assay (see generally the procedures in Jantzen, H. M. et al. (1999) Thromb. Hemost. 81:111′-117) or standard cuvette light transmittance aggregometry using either human platelet-rich plasma (PRP) or human washed platelets.\nFor preparation of human platelet-rich plasma for aggregation assays, human venous blood was collected from healthy, drug-free volunteers into 0.38% sodium citrate (0.013 M, pH 7.0 final). Platelet-rich plasma (PRP) is prepared by centrifugation of whole blood at 160×g for 20 minutes at room temperature. […]\nFor cuvette light transmittance aggregation assays, serial dilutions (1:3) of test compounds were prepared in 100% DMSO in a 96 well V-bottom plate (final DMSO concentration in the cuvette was 0.6%). […] The aggregation reaction is recorded for ˜5 mins, and maximum extent of aggregation is determined by the difference in extent of aggregation at baseline, compared to the maximum aggregation that occurs during the five minute period of the assay. Inhibition of aggregation was calculated as the maximum aggregation observed in the presence of inhibitor, compared to that in the absence of inhibitor. […]"}, "[2]": {"target": "T1, P2Y12 receptor on platelets (Homo sapiens, UniProt Q9H244)", "T1 construct": "endogenous in cells; host or cells: whole apyrase-washed human platelets (outdated from hospital blood banks, or fresh)", "T1 sequence (Q9H244 whole entry)": "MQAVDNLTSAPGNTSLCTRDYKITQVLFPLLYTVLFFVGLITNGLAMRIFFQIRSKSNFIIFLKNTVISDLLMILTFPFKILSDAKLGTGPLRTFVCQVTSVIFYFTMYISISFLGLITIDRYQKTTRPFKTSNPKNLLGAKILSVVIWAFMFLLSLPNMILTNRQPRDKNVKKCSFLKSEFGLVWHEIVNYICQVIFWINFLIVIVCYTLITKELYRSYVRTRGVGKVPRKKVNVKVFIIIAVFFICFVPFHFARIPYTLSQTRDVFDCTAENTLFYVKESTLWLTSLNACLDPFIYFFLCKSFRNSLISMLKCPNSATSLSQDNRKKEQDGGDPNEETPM", "assay": "platelet ADP receptor binding assay (ARB), inhibition of [3H]2-MeS-ADP binding to platelets", "description": "1. The Ability of Candidate Molecules to Inhibit the Binding of [3H]2-MeS-ADP to the P2Y12 Receptor on Platelets was Determined Using a Radioligand Binding Assay\nUtilizing this assay the potency of inhibition of such compounds with respect to [^3H]2-MeS-ADP binding to whole platelets is determined. Under the conditions described in II (3) below, the binding of [^3H]2-MeS-ADP is solely due to the interaction of this ligand with the P2Y12 receptor, in that all the specific binding measured in this assay is compatable with a P2Y12 antagonist (i.e., the specific binding is reduced to background levels by competition with an excess of P2Y12 antagonist, with no competition of binding when a P2Y1 antagonist is pre-incubated with the platelet preparation). […]\nA platelet ADP receptor binding assay (ARB) using the tritiated potent agonist ligand [^3H]2-MeS-ADP (Jantzen, H. M. et al. (1999) Thromb. Hemost. 81:111-117) has been adapted to the 96-well microtiter format. […] Total binding is determined in the absence of test compounds. […] The platelet-bound radioactivity on the filtermats is determined in a scintillation counter (Microbeta 1450, Wallac Inc., Gaithersburg, Md.). Specific binding is determined by subtraction of non-specific binding from total binding, and specific binding in the presence of test compounds is expressed as % of specific binding in the absence of test compound dilutions. […]"}, "[3]": {"assay": "solid form stability on storage at elevated temperature/humidity, by XRPD", "assay_type": "physicochemical", "settings": "for Stability: further changes / Stability: XRPD; for Stability: storage at 40° C./75% RH, days as in the value", "description": "To 20 mg of [4-(6-fluoro-7-methylamino-2,4-dioxo-1,4-dihydro-2H-quinazolin-3-yl)-phenyl]-5-chloro-thiophen-2-yl-sulfonylurea in 3 mL of the various solvents, was added 1.1 eq. of the base in 1 mL solvent. The mixture was shaken for 2 hours and the solutions were left to evaporate down to half their volume to try to precipitate out the salt. […] Oils/emulsions and opaque liquids were left to maturate at 50° C./ambient in an 8 hour cycles for several weeks. […] Solid samples (crystalline and amorphous) were then filtered, dried and then analyzed to judge their purity, crystallinity and stability. Solids were analysed by ^1H NMR to confirm salt formation and analyzed by ion chromatography and TGA to obtain the stoichiometry of the salt."}, "[4]": {"settings": "for Aqueous solubility**: aqueous thermodynamic solubility, 25° C., 24 hours, expressed as free base equivalents, 100 mg scale-up samples", "quoted_text": "The suspension was then filtered through a glass fibre C filter into a 96 well plate. […] Quantitation was by HPLC with reference to a standard solution of approximately 0.1 mg.ml^−1. in DMSO. Different volumes of the standard, diluted and undiluted sample solutions were injected.\nIf there was sufficient solid in the filter plate, the XRPD pattern was collected."}, "[5]": {"assay": "gravimetric vapour sorption (GVS)", "assay_type": "physicochemical", "settings": "for GVS: Total weight change 0-90% RH: 25° C.; for GVS: XRPD post GVS: wrapped cells read: shows new form / matches stability samples / shows no change", "description": "Sorption isotherms were obtained using a Hiden IGASorp moisture sorption analyser, controlled by CFRSorp software. The sample temperature was maintained at 25° C. by a Huber re-circulating water bath. The humidity was controlled by mixing streams of dry and wet nitrogen, with a total flow rate of 250 ml.min^−1. […] (typical room conditions). A moisture sorption isotherm was performed as outlined below (2 scans giving 1 complete cycle). […] The software uses a least squares minimisation procedure together with a model of the mass relaxation, to predict an asymptotic value. […] The minimum equilibration time was set to 1 hour and the maximum to 4 hours. The sample was recovered after completion of the isotherm and re-analysed by XRPD."}, "[6]": {"settings": "storage, time not stated (figure legend)"}, "[7]": {"settings": "after a further 10 days at 60° C./75% RH"}, "[8]": {"settings": "a further 4 days at 60° C./75% RH (figure legend)"}},
  "note": "Where “and” joins values, the source holds several entries; their conditions need not be identical. Equal entries are not always repeated. Where two headings read alike, the source gives them in different places.",
  "data": [
    {"molecule": "CNc1cc2[nH]c(=O)n(-c3ccc(NC(=O)NS(=O)(=O)c4ccc(Cl)s4)cc3)c(=O)c2cc1F", "note": "[Example 2, [4-(6-fluoro-7-methylamino-2,4-dioxo-1,4-dihydro-2H-quinazolin-3-yl)-phenyl]-5-chloro-thiophen-2-yl-sulfonylurea]", "values": [
      {"measurement": "IC50", "setting": "[1]", "result": "< 10", "unit": "µM"},
      {"measurement": "IC50", "setting": "[2]", "result": "< 0.05", "unit": "µM"}
    ]},
    {"molecule": "CNc1cc2[nH]c(=O)n(-c3ccc(NC(=O)NS(=O)(=O)c4ccc(Cl)s4)cc3)c(=O)c2cc1F.[K]", "note": "[Potassium hydroxide, [4-(6-fluoro-7-methylamino-2,4-dioxo-1,4-dihydro-2H-quinazolin-3-yl)-phenyl]-5-chloro-thiophen-2-yl-sulfonylurea potassium salt]", "values": [
      {"measurement": "stability with respect to 40° C./75% RH by XRPD", "setting": "[3]", "result": "converts to an amorphous phase"},
      {"measurement": "Aqueous solubility**", "setting": "[4]", "result": 2700, "unit": "µg/mL"}
    ]},
    {"molecule": "CNc1cc2[nH]c(=O)n(-c3ccc(NC(=O)NS(=O)(=O)c4ccc(Cl)s4)cc3)c(=O)c2cc1F.[Na]", "note": "[Sodium Ethoxide, [4-(6-fluoro-7-methylamino-2,4-dioxo-1,4-dihydro-2H-quinazolin-3-yl)-phenyl]-5-chloro-thiophen-2-yl-sulfonylurea sodium salt]", "values": [
      {"measurement": "GVS: Total weight change 0-90% RH", "setting": "[5]", "result": "8.8 wt %, little hysteresis,"},
      {"measurement": "GVS: XRPD post GVS", "setting": "[5]", "result": "XRPD post GVS shows new"},
      {"measurement": "Stability: further changes", "setting": "[3]; after 10 days at 40° C./75% RH", "result": "at 40° C./75% RH (no"},
      {"measurement": "Stability", "setting": "[3]; sodium salt", "result": "Some changes after 2 days"},
      {"measurement": "Aqueous solubility**", "setting": "[4]", "result": 7700, "unit": "µg/mL"}
    ]},
    {"molecule": "CNc1cc2[nH]c(=O)n(-c3ccc(NC(=O)NS(=O)(=O)c4ccc(Cl)s4)cc3)c(=O)c2cc1F.[Na]", "note": "[Sodium hydroxide, [4-(6-fluoro-7-methylamino-2,4-dioxo-1,4-dihydro-2H-quinazolin-3-yl)-phenyl]-5-chloro-thiophen-2-yl-sulfonylurea sodium salt]", "values": [
      {"measurement": "Stability", "setting": "[3]; sodium salt", "result": "Amorphous after 3 days at"},
      {"measurement": "stability with respect to 40° C./75% RH by XRPD", "setting": "[3]; [6]", "result": "converts to an amorphous phase"}
    ]},
    {"molecule": "CNc1cc2[nH]c(=O)n(-c3ccc(NC(=O)NS(=O)(=O)c4ccc(Cl)s4)cc3)c(=O)c2cc1F.N", "note": "[ammonium salt (form A), [4-(6-fluoro-7-methylamino-2,4-dioxo-1,4-dihydro-2H-quinazolin-3-yl)-phenyl]-5-chloro-thiophen-2-yl-sulfonylurea ammonium salt]", "values": [
      {"measurement": "stability with respect to 40° C./75% RH by XRPD", "setting": "[3]; [6]", "result": "improvements in crystallinity"}
    ]},
    {"molecule": "CNc1cc2[nH]c(=O)n(-c3ccc(NC(=O)NS(=O)(=O)c4ccc(Cl)s4)cc3)c(=O)c2cc1F.[K]", "note": "[form C, [4-(6-fluoro-7-methylamino-2,4-dioxo-1,4-dihydro-2H-quinazolin-3-yl)-phenyl]-5-chloro-thiophen-2-yl-sulfonylurea potassium salt]", "values": [
      {"measurement": "XRPD after the GVS experiment", "setting": "[5]", "result": "reduced in crystallinity"},
      {"measurement": "pH", "setting": "[4]; pH of the suspension in the solubility measurement, potassium salt", "result": "8.7 and 8.8"},
      {"measurement": "Thermodynamic solubility in water", "setting": "[4]; water", "result": 4500, "unit": "µg/mL"}
    ]},
    {"molecule": "[4-(6-fluoro-7-methylamino-2,4-dioxo-1,4-dihydro-2H-quinazolin-3-yl)-phenyl]-5-chloro-thiophen-2-yl-sulfonylurea calcium salt [Calcium acetate]", "values": [
      {"measurement": "GVS: Total weight change 0-90% RH", "setting": "[5]", "result": "13 wt %, mostly 80-90% RH,"},
      {"measurement": "GVS: XRPD post GVS", "setting": "[5]", "result": "XRPD post GVS matches"},
      {"measurement": "stability by XRPD", "setting": "[3]; 3 days at 40° C./75% RH", "result": "remains stable"},
      {"measurement": "Stability: further changes", "setting": "[3]; [7]", "result": "No changes"},
      {"measurement": "Stability", "setting": "[3]", "result": "No changes after 3 days"},
      {"measurement": "stability by XRPD", "setting": "[3]; [8]", "result": "remains stable"}
    ]},
    {"molecule": "[4-(6-fluoro-7-methylamino-2,4-dioxo-1,4-dihydro-2H-quinazolin-3-yl)-phenyl]-5-chloro-thiophen-2-yl-sulfonylurea tromethamine salt", "values": [
      {"measurement": "GVS: Total weight change 0-90% RH", "setting": "[5]", "result": "4.1 wt %, little hysteresis,"},
      {"measurement": "GVS: XRPD post GVS", "setting": "[5]", "result": "XRPD post GVS matches"},
      {"measurement": "stability by XRPD", "setting": "[3]; 3 days at 40° C./75% RH", "result": "some subtle changes"},
      {"measurement": "Stability: further changes", "setting": "[3]; [7]", "result": "at 40° C./75% RH but no"},
      {"measurement": "Stability", "setting": "[3]", "result": "Some changes after 3 days"},
      {"measurement": "stability by XRPD", "setting": "[3]; [8]", "result": "no further changes"}
    ]}
  ]
}
